Series [1] addresses Voltage-gated potassium channel, KQT; KCNQ2(Kv7.2)/KCNQ3(Kv7.3) (Homo sapiens, UniProt O43525+O43526). In words: Agonist activity at human KCNQ2/3 expressed in HEK293 cells by FLIPR based thallium influx assay. The format is cell-based.
For series [2], the target named is Voltage-gated potassium channel, KQT; KCNQ2(Kv7.2)/KCNQ3(Kv7.3) (Homo sapiens) (UniProt O43526+O43525). In words: Agonist activity at human KCNQ2/3 expressed in HEK293 cells by FLIPR based thallium influx assay relative to retigabine. The format is cell-based.
The test system of series [3] is Rattus norvegicus. In words: Antiallodynic activity in rat model of capsaicin-induced mechanical hyperalgesia assessed as increase in paw withdrawal threshold at 30 mg/kg, ip administered 30 mins before capsaicin addition relative to control. The format is functional.
Series [4] in a line: Half life in rat at 1 mg/kg, iv. The format is ADME, organism-based. As to conditions: in vivo.
Series [5] has as its system Rattus norvegicus. The series is described as follows: Antiallodynic activity in rat model of capsaicin-induced mechanical hyperalgesia assessed as increase in paw withdrawal threshold at 3 mg/kg, ip administered 30 mins before capsaicin addition relative to control. The format is functional.
Series [6] is described as follows: Oral bioavailability in rat at 1 mg/kg. The series is classed as ADME, organism-based. As to conditions: in vivo.
Series [7] can be described thus: AUC in rat at 1 mg/kg, po. The series is classed as ADME, organism-based. As to conditions: in vivo.
Series [8] relates to Rattus norvegicus. The series is described as follows: Antiallodynic activity in rat model of capsaicin-induced mechanical hyperalgesia assessed as increase in paw withdrawal threshold at 10 mg/kg, ip administered 30 mins before capsaicin addition relative to control. The format is functional.
In series [9] the test system is Rattus norvegicus. The series is described as follows: Antiallodynic activity in ip dosed rat model of capsaicin-induced mechanical hyperalgesia assessed as increase in paw withdrawal threshold administered 30 mins before capsaicin addition. The series is classed as functional, organism-based.
Series [10] can be described thus: Plasma clearance in rat at 1 mg/kg. iv. The format is ADME, organism-based.
Series [11] can be described thus: Ratio of drug level in brain to plasma in rat. The format is ADME. As to conditions: read-out: BPR.
Series [12] deals with Rattus norvegicus. In words: Antiallodynic activity in rat model of capsaicin-induced mechanical hyperalgesia assessed as increase in paw withdrawal threshold at 100 mg/kg, ip administered 30 mins before capsaicin addition relative to control. The series is classed as functional.

Sequence of Voltage-gated potassium channel, KQT; KCNQ2(Kv7.2)/KCNQ3(Kv7.3) (O43526 whole entry): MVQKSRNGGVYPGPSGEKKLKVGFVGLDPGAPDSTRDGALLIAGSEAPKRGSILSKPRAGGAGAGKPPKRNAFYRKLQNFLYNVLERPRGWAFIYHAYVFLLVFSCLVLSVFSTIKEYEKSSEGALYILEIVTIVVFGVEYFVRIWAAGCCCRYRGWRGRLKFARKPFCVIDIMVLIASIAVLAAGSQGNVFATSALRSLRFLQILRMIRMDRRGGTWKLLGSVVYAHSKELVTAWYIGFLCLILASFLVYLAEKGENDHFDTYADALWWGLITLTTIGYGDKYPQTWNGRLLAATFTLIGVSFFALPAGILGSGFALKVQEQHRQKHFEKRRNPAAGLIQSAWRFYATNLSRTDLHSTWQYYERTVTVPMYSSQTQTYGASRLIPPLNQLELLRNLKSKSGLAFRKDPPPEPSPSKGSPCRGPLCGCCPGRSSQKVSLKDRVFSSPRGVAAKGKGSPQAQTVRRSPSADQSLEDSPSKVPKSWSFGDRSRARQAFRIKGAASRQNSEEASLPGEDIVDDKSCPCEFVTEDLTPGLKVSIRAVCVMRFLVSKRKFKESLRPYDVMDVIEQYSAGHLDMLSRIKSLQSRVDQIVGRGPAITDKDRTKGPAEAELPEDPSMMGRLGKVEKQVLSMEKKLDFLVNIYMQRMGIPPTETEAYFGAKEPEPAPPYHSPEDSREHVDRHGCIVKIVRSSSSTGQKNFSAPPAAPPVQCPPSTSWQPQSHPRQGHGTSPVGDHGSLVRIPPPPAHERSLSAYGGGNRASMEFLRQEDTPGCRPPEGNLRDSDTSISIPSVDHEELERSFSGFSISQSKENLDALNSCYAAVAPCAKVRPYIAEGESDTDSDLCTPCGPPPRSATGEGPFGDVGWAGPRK
Sequence of Voltage-gated potassium channel, KQT; KCNQ2(Kv7.2)/KCNQ3(Kv7.3) (O43525 whole entry): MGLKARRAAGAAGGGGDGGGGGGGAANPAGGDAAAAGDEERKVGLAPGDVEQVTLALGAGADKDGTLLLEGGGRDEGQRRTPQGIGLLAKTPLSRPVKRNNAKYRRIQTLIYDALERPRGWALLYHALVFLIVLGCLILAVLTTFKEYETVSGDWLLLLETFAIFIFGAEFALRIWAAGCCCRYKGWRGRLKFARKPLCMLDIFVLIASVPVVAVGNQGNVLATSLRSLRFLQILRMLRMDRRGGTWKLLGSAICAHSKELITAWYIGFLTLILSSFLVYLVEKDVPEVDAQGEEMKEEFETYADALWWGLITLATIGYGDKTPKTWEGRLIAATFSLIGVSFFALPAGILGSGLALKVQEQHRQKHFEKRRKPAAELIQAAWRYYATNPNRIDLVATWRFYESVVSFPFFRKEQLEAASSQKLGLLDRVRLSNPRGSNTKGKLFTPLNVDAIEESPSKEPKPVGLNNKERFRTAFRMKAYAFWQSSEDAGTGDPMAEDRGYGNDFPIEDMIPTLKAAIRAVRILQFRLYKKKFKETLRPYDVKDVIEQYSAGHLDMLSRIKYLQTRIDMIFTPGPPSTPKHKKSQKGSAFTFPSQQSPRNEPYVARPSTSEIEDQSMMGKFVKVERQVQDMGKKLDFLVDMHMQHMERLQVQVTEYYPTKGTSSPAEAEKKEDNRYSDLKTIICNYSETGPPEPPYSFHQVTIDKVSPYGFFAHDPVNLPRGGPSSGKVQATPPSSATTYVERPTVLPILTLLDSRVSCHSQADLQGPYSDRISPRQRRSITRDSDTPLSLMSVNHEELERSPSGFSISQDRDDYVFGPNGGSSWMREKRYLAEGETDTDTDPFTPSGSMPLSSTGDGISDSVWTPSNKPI

As a reminder, the EC50 is the concentration needed to bring the measured effect to its halfway point. A high value points to a need for much substance. What is called Emax is the maximal effect, on the per cent scale that the assay sets. In series [1], `CC(C)(C)CC(=O)Nc1nn2cccnc2c1-c1ccc(C(F)(F)F)cc1` registered a concentration for a half-maximal effect (EC50) of 0.14 µM. The compound further returned a maximum response (Emax) in series [2] of 113%.
`CC(C)(C)CC(=O)Nc1nn2cccnc2c1-c1ccccc1` had an Emax in series [2] of 26%.
In turn, `O=C(Nc1nn2cccnc2c1-c1ccccc1)C1CCCCC1` came in with a maximal effect (Emax) in [2] of 8%.
In [1], `Cc1cnc2c(-c3ccc(F)c(C)c3)c(NC(=O)CC(C)(C)C)nn2c1` gave a concentration for a half-maximal effect (EC50) of 0.59 µM. For the same compound, the maximal effect (Emax) in series [2] amounted to 159%.
The compound `Cc1cnc2c(-c3ccc(F)c(C)c3)c(NC(=O)CC3CCCC3)nn2c1` showed an EC50 in series [1] of 0.14 µM. The compound also registered an Emax in [2] of 168%.
With `O=C(CC1CCCCC1)Nc1nn2cccnc2c1-c1ccccc1`, in [1], the response was half-maximal at 0.29 µM (EC50). In series [2], this compound returned an Emax of 133%.
Turning to `Cc1cc(C)n2nc(NC(=O)CCC3CCCC3)c(-c3ccc(F)c(C)c3)c2n1`, the EC50 in [1] turned out to be 0.07 µM. Further, the maximal response (Emax) in [2] was found to be 205%.
With `O=C(CC1CCCC1)Nc1nn2cccnc2c1-c1ccc(C(F)(F)F)cc1`, the Emax in series [2] worked out at 28%.
In the case of `O=C(Nc1nn2cccnc2c1-c1ccc(F)cc1)C1CCCC1`, the concentration giving a half-maximal response (EC50) in [1] was more than 32 µM. The Emax in series [2] worked out at 20%.
`Cc1cc(-c2c(NC(=O)CC(C)(C)C)nn3cccnc23)ccc1F` displayed an EC50 in [1] of 2.31 µM. The maximal effect (Emax) in [2] was found to be 135%.
As for `O=C(CC1CCCC1)Nc1nn2cccnc2c1-c1ccc(F)cc1`, the response in series [1] was half-maximal at 1 µM (EC50). The compound further had an Emax in series [2] of 100%.
As a reminder, the half-life is the time in which the quantity being followed falls by half. The term bioavailability denotes the share of a dose that reaches the circulation, judged against a reference dose that is usually intravenous. Lower therefore signals little systemic uptake. One may read the AUC as concentration integrated over time. Lower therefore signals low exposure. In general, clearance refers to a measure of how efficiently the substance is removed, as volume per time. A low value points to a low capacity for elimination. Turning to `CC(C)(C)CC(=O)Nc1nn2cccnc2c1-c1ccc(OC(F)(F)F)cc1`, in series [1], it took 0.41 µM to reach a half-maximal effect (EC50). The Activity was 52% in series [3], 10% in series [5], 26% in [8] and “Dose-dependent effect” in [9]. This compound showed a half-life in series [4] of 1.9 h. This compound yielded a bioavailability in [6] of 56%. The exposure (AUC) in series [7] is 0.706 µg·h/mL. The same compound had a clearance in series [10] of 0.8 L/h/kg. The Kp in series [11] was 3.8.
In turn, `Cc1cc(-c2c(NC(=O)CC3CCCC3)nn3cccnc23)ccc1F` yielded an EC50 in [1] of 1.17 µM. The same compound showed an Emax in series [2] of 139%.
The corresponding values for `CC(C)(C)c1ccnc2c(NC(=O)Cc3cc(F)cc(F)c3)cnn12` are 0.91 µM and 149%.
In series [1], `O=C(CCC1CCCC1)Nc1nn2cccnc2c1-c1ccc(C(F)(F)F)cc1` registered an EC50 of 0.05 µM.
`O=C(CCC1CCCCC1)Nc1nn2cccnc2c1-c1ccccc1` gave an EC50 in series [1] of 0.13 µM.
The compound `CCOC(=O)Nc1ccc(NCc2ccc(F)cc2)nc1N` [FLUPIRTINE] had an EC50 in [1] of 0.56 µM. The Emax in series [2] worked out at 112%.
In turn, `Cc1cc(-c2c(NC(=O)CCC3CCCC3)nn3cccnc23)ccc1F` returned a 50% effective concentration (EC50) in [1] of 0.18 µM. Moreover, the maximal effect (Emax) in series [2] stood at 169%.
The corresponding values for `O=C(CC1CCCC1)Nc1nn2cccnc2c1-c1ccc(OC(F)(F)F)cc1` are 0.19 µM and 88%.
The compound `CC(C)(C)CC(=O)Nc1nn2cccnc2c1-c1ccc(F)cc1` yielded a concentration for a half-maximal effect (EC50) in series [1] of 6.8 µM.
In [1], `O=C(CCC1CCCC1)Nc1nn2cccnc2c1-c1ccc(OC(F)(F)F)cc1` gave a concentration for a half-maximal effect (EC50) of 0.31 µM.
The same measure, in the same setting: the figure for `O=C(CCC1CCCC1)Nc1nn2cccnc2c1-c1ccc(F)cc1` is 0.14 µM.
In series [1], `CCOC(=O)Nc1ccc(NCc2ccc(F)cc2)cc1N` [EZOGABINE] showed a 50% effective concentration (EC50) of 4.38 µM. In series [2], the Emax turned out to be 99%.
In series [1], `Cc1cc(C)n2nc(NC(=O)CC3CCCC3)c(-c3ccc(F)c(C)c3)c2n1` had an EC50 of 0.07 µM. The maximal effect (Emax) in series [2] is 165%.
The compound `CC(C)(C)CC(=O)Nc1nn2c(C(C)(C)C)ccnc2c1-c1ccc(OC(F)(F)F)cc1` showed an EC50 in series [1] of more than 32 µM.
The same measure, in the same setting: the result for `Cc1cc(C)n2nc(NC(=O)CC(C)(C)C)c(-c3ccc(F)c(C)c3)c2n1` reads 0.05 µM.
`Cc1cnc2c(-c3ccc(F)c(C)c3)c(NC(=O)CCC3CCCC3)nn2c1` yielded an EC50 in series [1] of 0.08 µM.
Take `NCC1(CC(=O)O)CCCCC1` [GABAPENTIN]: in [12], the Activity was found to be 70%.

Values taken from ChEMBL document CHEMBL4351029, “Design and evaluation of pyrazolopyrimidines as KCNQ channel modulators” (Bioorg Med Chem Lett, 2019).
